According to ChEMBL document CHEMBL1157480, “Petrosamine, a potent anticholinesterase pyridoacridine alkaloid from a Thai marine sponge Petrosia n. sp” (Bioorg Med Chem, 2008):

Molecular target: Acetylcholinesterase (Torpedo californica, UniProt P04058)
Assay: Inhibition of Torpedo californica AchE activity by Ellman's assay
Design: species or system Tetronarce californica

Sequence of Acetylcholinesterase (P04058 whole entry): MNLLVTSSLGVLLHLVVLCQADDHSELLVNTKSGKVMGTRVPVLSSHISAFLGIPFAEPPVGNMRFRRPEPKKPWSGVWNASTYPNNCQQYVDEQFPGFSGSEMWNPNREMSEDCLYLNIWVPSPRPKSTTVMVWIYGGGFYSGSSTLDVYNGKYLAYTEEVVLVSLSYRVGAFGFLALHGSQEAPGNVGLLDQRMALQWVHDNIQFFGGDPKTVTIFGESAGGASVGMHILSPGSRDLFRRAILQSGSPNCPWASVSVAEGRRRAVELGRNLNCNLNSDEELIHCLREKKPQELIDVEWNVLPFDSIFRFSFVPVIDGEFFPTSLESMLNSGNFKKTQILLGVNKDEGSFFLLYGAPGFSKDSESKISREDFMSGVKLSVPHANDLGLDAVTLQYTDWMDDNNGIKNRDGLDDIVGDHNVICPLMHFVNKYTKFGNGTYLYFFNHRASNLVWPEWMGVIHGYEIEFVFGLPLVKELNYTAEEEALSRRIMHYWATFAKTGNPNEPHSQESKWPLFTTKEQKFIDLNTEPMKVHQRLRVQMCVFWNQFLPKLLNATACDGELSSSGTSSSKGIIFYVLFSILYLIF

Cn1cc2c(cc1=O)-c1nc3cc(Br)ccc3c3ccnc(c13)C2=O
IC50: > 300000 nM

Cn1ccc2c3nc4cc(Br)ccc4c4c3c(c(=O)c-2c1)[N+](C)(C)CC4=O [PETROSAMINE]
IC50: 91 nM
